Measured values from paper PMC6295334 (ACS chemical biology, 2017).
Like-named read-outs stand apart in the source and are kept apart here.

Key:
Alg44 [1] = target: T1, Alg44 (Pseudomonas aeruginosa, UniProt Q9HY69); experiment: intact protein LC-MS adduct; format: binding
Alg44 [2] = target: T1, Alg44; experiment: intact protein LC-MS adduct; format: binding; remark: listed apart in the source

T1 sequence (Q9HY69 14-122): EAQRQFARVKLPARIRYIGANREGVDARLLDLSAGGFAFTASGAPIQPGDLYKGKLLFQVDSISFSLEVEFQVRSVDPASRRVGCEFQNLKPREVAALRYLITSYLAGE

Work on `CCC1(C)Cc2ccccc2-c2nc3[nH][nH]c(=S)n3c(=O)c21` (centres unmarked) [compound 925] yielded an IC50 (Alg44 [1]) of 58.1 ± 1.2 µM.

Molecule AC1LFHI9 has an IC50 (Alg44 [2]) of 63.5 ± 1.3 µM.
